Source: BindingDB's records for doi:10.1016/0960-894X(96)00010-8 (1996)

Assay: Inhibition of voltage sensitive calcium channel of embryonic chick dorsal root ganglion (DRG) cells

`COc1ccc(OC)c(-n2c(N)nc3cc(C(F)(F)F)ccc32)c1` [1-(2,5-Dimethoxy-phenyl)-5-trifluoromethyl-1H-benzoimidazol-2-ylamine] showed an IC50 of 32 µM.
